Our source for the IC50 values is patent US20240400577A1, “MODULATORS OF PROTEIN KINASES” (VIBLIOME THERAPEUTICS, LLC, priority 2021, published 2024).

Molecules are shown by their SMILES. Bounds are passed on as bounds.

What all share (test): Kinase panel enzymatic inhibition assay (Nanosyn)
What all share (format): biochemical

One assay deals with T1, ITK (Homo sapiens, UniProt Q08881).
T1 construct: Nanosyn (contract laboratory that ran the panel)
T1 sequence (Q08881 1-620): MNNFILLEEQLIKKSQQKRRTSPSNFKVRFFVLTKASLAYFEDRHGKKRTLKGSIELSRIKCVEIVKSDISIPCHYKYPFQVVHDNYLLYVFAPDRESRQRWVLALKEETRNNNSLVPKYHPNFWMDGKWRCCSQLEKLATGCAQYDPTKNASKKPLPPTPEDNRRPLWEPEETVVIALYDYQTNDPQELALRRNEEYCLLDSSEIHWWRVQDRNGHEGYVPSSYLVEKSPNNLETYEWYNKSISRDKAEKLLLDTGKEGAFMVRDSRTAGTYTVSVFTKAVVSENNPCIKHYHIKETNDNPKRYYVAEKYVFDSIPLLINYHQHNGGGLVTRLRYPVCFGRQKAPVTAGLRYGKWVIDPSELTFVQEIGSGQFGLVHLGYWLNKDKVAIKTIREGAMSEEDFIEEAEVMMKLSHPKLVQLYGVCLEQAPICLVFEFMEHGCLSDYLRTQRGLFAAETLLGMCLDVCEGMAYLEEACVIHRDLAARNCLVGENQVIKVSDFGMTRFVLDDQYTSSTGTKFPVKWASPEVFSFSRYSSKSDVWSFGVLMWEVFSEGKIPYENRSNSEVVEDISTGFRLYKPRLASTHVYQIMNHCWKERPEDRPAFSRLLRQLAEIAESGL
The settings on record: ATP at Km; 30-minute pre-incubation; read-out: kinase inhibition in terms of IC50, ITK. How it is done: (§1) The disclosed compounds were tested for activity against a panel of at least 300 kinases. Kinase panel screening was conducted by Nanosyn (Santa Clara, CA 95051) using an enzymatic inhibition assay accepted as valid by those skilled in the art (e.g., the Caliper LabChip® mobility shift assay, an ADP detection assay, or time-resolved fluorescence detection technology. Compounds were screened at a concentration of 5 μM using an ATP concentration at the Km for each of the respective kinases and a 30-minute pre-incubation time-point.
(§2) In Table 1 and 2, kinase inhibition is classified by: A=95% or greater, B=90%-94%, C=80%-89%, and D=79% and less with a compound concentration of 5 JIM. In Table 3 and 4, kinase inhibition is reported in terms of IC50 values corresponding to A=less than 500 nm, B=500 nm to less than 1 μM, C=1 μM to less than 10 μM, and D=10 μM or greater using a compound concentration of 5 μM.

In another assay the target is T2, WEE1 (Homo sapiens, UniProt P30291).
T2 construct: purchased Nanosyn
T2 sequence (P30291 whole entry): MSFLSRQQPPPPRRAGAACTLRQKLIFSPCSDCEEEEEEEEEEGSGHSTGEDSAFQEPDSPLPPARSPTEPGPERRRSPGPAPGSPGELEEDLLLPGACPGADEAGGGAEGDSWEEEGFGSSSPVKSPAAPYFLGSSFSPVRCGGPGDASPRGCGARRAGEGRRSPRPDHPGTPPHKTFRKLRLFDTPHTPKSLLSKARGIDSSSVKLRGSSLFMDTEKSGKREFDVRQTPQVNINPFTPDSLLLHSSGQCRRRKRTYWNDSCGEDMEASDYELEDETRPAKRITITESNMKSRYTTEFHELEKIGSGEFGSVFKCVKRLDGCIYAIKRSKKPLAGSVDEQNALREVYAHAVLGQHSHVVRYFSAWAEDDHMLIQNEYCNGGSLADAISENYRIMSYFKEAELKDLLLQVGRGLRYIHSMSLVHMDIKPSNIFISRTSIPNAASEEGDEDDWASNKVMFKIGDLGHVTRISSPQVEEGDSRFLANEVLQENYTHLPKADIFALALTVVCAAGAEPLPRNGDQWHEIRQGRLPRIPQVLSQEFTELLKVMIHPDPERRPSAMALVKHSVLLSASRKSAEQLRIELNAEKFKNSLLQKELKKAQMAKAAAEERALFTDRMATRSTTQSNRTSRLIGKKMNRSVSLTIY
The settings on record: ATP at Km; 30-minute pre-incubation; read-out: kinase inhibition in terms of IC50, WEE1. How it is done:
as §1, §2

The next assay concerns the target T3, PAK1 (Homo sapiens, UniProt Q13153).
T3 construct: Nanosyn (contract laboratory that ran the panel)
The note with it: ATP at Km; 30-minute pre-incubation; read-out: kinase inhibition in terms of IC50, PAK1. How it is done: as §1, §2

The next assay concerns the target T4, PAK4 (Homo sapiens, UniProt O96013).
T4 construct: Nanosyn (contract laboratory that ran the panel)
The settings on record: ATP at Km; 30-minute pre-incubation; read-out: kinase inhibition in terms of IC50, PAK4. On the procedure: as §1, §2

Another assay deals with T5, PAK2 (Homo sapiens, UniProt Q13177).
T5 construct: Nanosyn (contract laboratory that ran the panel)
T5 sequence (Q13177 whole entry): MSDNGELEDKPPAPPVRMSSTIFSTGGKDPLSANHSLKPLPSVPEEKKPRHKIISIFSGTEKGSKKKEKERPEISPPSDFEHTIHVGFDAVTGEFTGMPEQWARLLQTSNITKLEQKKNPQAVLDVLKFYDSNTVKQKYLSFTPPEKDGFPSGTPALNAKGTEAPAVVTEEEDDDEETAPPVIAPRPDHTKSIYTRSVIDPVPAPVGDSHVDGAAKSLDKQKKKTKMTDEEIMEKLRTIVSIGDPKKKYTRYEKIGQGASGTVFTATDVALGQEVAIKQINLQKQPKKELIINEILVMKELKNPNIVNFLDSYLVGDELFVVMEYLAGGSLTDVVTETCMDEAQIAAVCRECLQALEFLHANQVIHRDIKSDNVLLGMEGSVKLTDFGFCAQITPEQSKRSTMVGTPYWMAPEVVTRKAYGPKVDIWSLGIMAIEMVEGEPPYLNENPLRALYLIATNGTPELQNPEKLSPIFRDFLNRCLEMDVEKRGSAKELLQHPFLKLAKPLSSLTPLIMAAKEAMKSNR
The note with it: ATP at Km; 30-minute pre-incubation; read-out: kinase inhibition in terms of IC50, PAK2. How it is done: as §1, §2

Another assay addresses T6, RIPK2 (Homo sapiens, UniProt O43353).
T6 construct: purchased Nanosyn
The note with it: ATP at Km; 30-minute pre-incubation; read-out: kinase inhibition in terms of IC50, RIPK2. How it is done: as §1, §2

The target in the next assay is T7, RIPK1 (Homo sapiens, UniProt Q13546).
T7 construct: purchased Nanosyn
T7 sequence (Q13546 1-671): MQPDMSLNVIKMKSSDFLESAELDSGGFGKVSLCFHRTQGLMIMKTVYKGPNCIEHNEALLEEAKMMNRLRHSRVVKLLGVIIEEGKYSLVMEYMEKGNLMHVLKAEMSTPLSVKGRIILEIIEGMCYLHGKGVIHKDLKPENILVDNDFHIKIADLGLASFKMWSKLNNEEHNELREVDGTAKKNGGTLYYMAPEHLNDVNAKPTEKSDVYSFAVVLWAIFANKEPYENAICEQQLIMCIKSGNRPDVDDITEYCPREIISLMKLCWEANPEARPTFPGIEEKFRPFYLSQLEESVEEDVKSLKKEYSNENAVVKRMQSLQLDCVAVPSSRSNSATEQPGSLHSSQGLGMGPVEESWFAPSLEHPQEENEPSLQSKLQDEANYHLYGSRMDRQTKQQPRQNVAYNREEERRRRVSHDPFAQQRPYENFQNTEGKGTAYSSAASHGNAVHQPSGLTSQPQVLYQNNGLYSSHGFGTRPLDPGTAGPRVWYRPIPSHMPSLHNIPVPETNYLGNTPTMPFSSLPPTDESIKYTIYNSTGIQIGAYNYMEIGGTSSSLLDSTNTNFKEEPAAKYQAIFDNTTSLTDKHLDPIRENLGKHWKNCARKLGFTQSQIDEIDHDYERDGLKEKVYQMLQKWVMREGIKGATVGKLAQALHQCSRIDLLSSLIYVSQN
The note with it: ATP at Km; 30-minute pre-incubation; read-out: kinase inhibition in terms of IC50, RIPK1. On the procedure: as §1, §2

The target in the next assay is T8, JAK3 (Homo sapiens, UniProt P52333).
T8 construct: Nanosyn (contract laboratory that ran the panel)
T8 sequence (P52333 1-1124): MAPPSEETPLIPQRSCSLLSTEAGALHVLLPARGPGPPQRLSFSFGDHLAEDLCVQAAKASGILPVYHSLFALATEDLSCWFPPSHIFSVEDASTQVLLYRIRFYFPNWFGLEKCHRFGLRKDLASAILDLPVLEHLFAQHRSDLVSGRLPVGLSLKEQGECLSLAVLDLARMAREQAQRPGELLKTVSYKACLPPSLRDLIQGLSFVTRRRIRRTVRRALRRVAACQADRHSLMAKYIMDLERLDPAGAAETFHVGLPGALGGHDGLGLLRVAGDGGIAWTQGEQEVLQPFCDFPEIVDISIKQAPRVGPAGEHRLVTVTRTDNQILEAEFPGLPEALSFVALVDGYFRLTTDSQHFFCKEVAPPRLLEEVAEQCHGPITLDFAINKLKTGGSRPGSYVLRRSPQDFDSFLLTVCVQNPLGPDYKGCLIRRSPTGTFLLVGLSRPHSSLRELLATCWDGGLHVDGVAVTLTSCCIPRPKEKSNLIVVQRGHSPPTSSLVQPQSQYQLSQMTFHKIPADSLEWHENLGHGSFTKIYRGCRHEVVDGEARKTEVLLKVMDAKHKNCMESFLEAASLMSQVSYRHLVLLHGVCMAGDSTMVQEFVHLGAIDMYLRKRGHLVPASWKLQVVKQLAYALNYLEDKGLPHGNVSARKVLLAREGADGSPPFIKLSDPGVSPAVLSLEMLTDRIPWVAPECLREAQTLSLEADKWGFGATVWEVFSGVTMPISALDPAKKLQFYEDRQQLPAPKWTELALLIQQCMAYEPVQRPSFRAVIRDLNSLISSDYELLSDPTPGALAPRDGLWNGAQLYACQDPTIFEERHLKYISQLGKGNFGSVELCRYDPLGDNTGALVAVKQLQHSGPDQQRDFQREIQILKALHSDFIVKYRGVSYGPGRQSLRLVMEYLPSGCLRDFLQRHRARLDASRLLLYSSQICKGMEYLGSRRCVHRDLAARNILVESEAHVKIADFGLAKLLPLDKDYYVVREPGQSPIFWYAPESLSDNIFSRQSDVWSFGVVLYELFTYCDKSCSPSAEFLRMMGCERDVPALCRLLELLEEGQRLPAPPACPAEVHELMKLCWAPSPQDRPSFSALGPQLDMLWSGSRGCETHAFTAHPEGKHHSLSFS
The note with it: ATP at Km; 30-minute pre-incubation; read-out: kinase inhibition in terms of IC50, JAK3. On the procedure: as §1, §2

The target of another assay is T9, TYK2 (Homo sapiens, UniProt P29597).
T9 construct: purchased Nanosyn
T9 sequence (P29597 whole entry): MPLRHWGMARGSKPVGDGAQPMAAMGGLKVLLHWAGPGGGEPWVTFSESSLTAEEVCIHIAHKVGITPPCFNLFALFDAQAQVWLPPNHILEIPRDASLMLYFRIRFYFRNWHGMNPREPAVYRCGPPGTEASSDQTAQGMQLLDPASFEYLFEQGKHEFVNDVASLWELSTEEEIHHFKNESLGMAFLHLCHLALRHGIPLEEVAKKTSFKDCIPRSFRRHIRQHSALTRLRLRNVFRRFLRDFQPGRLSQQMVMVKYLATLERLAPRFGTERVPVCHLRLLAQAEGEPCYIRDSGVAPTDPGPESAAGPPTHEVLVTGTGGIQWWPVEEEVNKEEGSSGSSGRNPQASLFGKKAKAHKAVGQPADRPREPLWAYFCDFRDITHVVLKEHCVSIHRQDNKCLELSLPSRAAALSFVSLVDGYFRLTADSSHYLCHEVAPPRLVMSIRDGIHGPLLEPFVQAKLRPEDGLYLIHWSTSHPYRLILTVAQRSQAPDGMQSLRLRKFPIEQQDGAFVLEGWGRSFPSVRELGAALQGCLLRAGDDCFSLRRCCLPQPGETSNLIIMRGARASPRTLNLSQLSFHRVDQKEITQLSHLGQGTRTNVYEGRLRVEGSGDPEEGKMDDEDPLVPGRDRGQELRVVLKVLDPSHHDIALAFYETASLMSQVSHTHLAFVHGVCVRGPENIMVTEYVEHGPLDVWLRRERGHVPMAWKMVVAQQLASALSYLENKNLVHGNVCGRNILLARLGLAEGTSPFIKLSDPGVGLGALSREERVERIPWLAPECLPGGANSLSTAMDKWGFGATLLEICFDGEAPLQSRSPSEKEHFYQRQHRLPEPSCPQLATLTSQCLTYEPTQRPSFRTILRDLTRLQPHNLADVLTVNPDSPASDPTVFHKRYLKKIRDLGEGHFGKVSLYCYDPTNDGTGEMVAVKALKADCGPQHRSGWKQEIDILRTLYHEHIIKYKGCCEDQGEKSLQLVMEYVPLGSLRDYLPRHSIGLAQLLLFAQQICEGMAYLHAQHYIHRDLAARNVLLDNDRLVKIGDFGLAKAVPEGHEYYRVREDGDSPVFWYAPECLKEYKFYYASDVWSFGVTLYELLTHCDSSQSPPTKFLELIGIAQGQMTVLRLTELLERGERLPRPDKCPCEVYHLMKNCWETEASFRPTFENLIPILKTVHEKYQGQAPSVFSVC
The settings on record: ATP at Km; 30-minute pre-incubation; read-out: kinase inhibition in terms of IC50, TYK2. How it is done: as §1, §2

T3 sequence (Q13153 whole entry): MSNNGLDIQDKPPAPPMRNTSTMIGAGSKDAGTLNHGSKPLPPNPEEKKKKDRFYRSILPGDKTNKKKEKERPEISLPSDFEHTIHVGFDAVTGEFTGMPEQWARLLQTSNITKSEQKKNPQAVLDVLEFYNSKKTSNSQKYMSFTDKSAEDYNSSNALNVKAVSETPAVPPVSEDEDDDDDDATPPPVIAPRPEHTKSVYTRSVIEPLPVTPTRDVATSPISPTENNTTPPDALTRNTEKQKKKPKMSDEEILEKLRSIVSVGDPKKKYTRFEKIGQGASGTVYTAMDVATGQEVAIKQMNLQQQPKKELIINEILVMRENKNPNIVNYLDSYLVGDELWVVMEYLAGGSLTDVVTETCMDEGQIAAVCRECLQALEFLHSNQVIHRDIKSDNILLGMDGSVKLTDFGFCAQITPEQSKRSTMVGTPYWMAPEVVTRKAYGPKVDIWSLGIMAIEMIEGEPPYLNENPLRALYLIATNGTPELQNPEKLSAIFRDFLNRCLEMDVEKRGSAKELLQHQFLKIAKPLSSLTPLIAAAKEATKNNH
T4 sequence (O96013 whole entry): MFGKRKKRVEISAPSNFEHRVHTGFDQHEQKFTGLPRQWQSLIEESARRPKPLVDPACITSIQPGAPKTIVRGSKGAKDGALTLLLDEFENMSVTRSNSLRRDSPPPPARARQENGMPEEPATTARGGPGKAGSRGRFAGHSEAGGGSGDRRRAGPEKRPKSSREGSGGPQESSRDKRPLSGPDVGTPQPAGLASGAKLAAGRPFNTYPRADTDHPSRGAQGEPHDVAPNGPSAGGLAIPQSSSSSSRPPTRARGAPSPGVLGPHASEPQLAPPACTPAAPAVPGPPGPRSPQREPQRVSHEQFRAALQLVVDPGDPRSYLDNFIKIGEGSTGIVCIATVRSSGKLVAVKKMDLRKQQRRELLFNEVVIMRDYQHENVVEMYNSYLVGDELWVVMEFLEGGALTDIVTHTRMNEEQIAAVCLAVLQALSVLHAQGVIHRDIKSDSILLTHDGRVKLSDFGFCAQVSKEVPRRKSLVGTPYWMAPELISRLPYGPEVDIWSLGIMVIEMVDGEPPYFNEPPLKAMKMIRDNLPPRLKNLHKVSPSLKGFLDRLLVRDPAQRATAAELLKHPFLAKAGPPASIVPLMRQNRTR
T6 sequence (O43353 whole entry): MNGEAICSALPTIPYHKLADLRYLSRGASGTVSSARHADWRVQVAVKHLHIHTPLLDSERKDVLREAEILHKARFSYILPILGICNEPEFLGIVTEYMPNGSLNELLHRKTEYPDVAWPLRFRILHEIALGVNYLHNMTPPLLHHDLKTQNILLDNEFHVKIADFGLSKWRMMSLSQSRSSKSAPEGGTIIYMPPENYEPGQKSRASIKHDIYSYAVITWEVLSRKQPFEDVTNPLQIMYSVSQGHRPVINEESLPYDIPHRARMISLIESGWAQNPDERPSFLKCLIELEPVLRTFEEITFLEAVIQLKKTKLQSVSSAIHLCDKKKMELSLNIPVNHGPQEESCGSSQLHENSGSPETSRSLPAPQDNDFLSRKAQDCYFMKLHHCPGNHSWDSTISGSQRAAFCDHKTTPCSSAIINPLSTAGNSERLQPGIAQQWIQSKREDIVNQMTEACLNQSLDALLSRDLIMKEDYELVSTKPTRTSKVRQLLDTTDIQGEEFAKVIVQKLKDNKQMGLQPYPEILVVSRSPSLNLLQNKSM

The IC50 is the concentration at which inhibition is half-maximal. As for `Cc1ccc(NC(=O)c2ccn(-c3ccc(F)cc3)n2)cc1Nc1nccc(-c2cccnc2)n1` [Ex75, 1-(4-fluorophenyl)-N-(4-methyl-3-((4-(pyridin-3-yl)pyrimidin-2-yl)amino)phenyl)-1H-pyrazole-3-carboxamide], the IC50 at ITK is not below 10 µM.

Regarding `CNc1ncc2cc(-c3cc(NC(=O)c4cc(S(C)(=O)=O)n(-c5ccc(F)cc5)n4)ccc3Cl)c(=O)n(C)c2n1` [Ex76, N-(4-chloro-3-(8-methyl-2-(methylamino)-7-oxo-7,8-dihydropyrido[2,3-d]pyrimidin-6-yl)phenyl)-1-(4-fluorophenyl)-5-(methylsulfonyl)-1H-pyrazole-3-carboxamide], the IC50 at WEE1 was not below 10 µM; at PAK1, not below 10 µM; on PAK4, 1 to 10 µM; on PAK2, not below 10 µM.

With `Cn1cnc2ccc(Oc3ccc(F)c(NC(=O)c4ccn(-c5ccc(F)cc5)n4)c3)cc2c1=O` [Ex80, N-(2-fluoro-5-((3-methyl-4-oxo-3,4-dihydroquinazolin-6-yl)oxy)phenyl)-1-(4-fluorophenyl)-1H-pyrazole-3-carboxamide], the IC50 at RIPK2 and at RIPK1 was not below 10 µM throughout.

With `CNc1ncc2cc(-c3cc(NC(=O)c4ccn(-c5ccc(F)cc5)n4)c(F)cc3C)c(C)nc2n1` [Ex85, N-(2-fluoro-4-methyl-5-(7-methyl-2-(methylamino)pyrido[2,3-d]pyrimidin-6-yl)phenyl)-1-(4-fluorophenyl)-1H-pyrazole-3-carboxamide], the IC50 on PAK1 and at PAK2 was not below 10 µM each time.

With `Cc1cnc2[nH]cc(Cc3ccc(NC(=O)c4cc(S(C)(=O)=O)n(-c5ccc(F)cc5)n4)nc3F)c2c1` [Ex87, N-(6-fluoro-5-((5-methyl-1H-pyrrolo[2,3-b]pyridin-3-yl)methyl)pyridin-2-yl)-1-(4-fluorophenyl)-5-(methylsulfonyl)-1H-pyrazole-3-carboxamide], the IC50 on JAK3 and on TYK2 was not below 10 µM throughout.
